Measurements as given in publication PMC10066050, “Antimicrobial peptides CS-piscidin-induced cell death involves activation of RIPK1/PARP, and modification with myristic acid enhances its stability and tumor-targeting capability” (Discover. Oncology, 2023).
Where no end group is shown, it is not given here.

Assays:
[1] = system: SKOV3 cells; format: cell-based, human; settings: 24 h
Procedure: (§1) A2780, SKOV3, ID8, IOSE80, and HUVEC cells (2.0 × 10^3 per well) were seeded into 96-well plates in 100 μL culture medium. After 24 h of incubation, the medium was replaced with a medium containing various peptide concentrations. The cell viability after the peptide treatment was tested by CCK8 assay. Briefly, after 24 h treatment, 10 μL CCK8 was added to each well and incubated for 2 h. After incubation, the optical density (OD) at 450 nm was detected using a microplate reader. Cell viability was calculated using the formula: (%) = [D-D0]/[ D¯ -D0] × 100%. D was the OD value of the experimental group, D0 represented the OD value of the blank control group, while [ D¯ was the mean OD value of the control group.

[2] = system: A2780 cells; format: cell-based, human; settings: 24 h
Procedure: as §1

[3] = system: ID8 cells; format: cell-based, mouse; settings: 24 h
Procedure: as §1

[4] = system: OVCA429 cells; format: cell-based, human; settings: 24 h
[5] = system: ID8-Luc cells; assay: Ovarian cancer peritoneal spread mouse model; format: in vivo; settings: C57BL/6 mice, 5 mpk intraperitoneally every other day, 10 administrations; ascites volume after sacrifice
Procedure: To create luciferase heredity stable ID8 cells, the PL-luciferase plasmid (Addgene, 21,471) was packaged by co-transfecting it with DVPR and VSVG packing plasmids using PEI in HEK293T. The virus-containing solution was then collected and cell debris was removed through a 0.45 μm filter. After infection, the cells were selected by treating them with 1 μg/mL puromycin for 3 days to eliminate the uninfected ID8 cells. The expression of luciferase in the cells was then confirmed using the Bio-Lumi™ Firefly Luciferase Reporter Gene Assay Kit (RG042S, Beyotime, China).
The animal experiment followed the Declaration of Helsinki guidelines and was approved by the Guangdong Medical University Animal Ethical Committee (GDY2102330). 5-week-old female C57BL/6 mice were obtained from Yancheng biological company and housed in an SPF laboratory at 26 ℃ with free access to water and food. Mice were intraperitoneally injected with 5 × 10^6 ID8-Luc-puro cells resuspended in 200 μL PBS. […] Body weight was measured every 5 days. After treatment, mice were injected with pentobarbitone and D-luciferin, and the luminescence signals were observed within 15 min using the live imaging system (In-vivo Xtreme, Bruker, USA). The fluorescence intensity was normalized and analyzed by Bruker MI SE software.

[6] = system: normal ovary epithelial cell IOSE80; assay: CCK8 cell viability assay; format: cell-based; settings: 24 h
Procedure: as §1

[7] = system: human umbilical vein endothelial cells HUVEC; assay: CCK8 cell viability assay; format: cell-based; settings: 24 h
Procedure: as §1

## FFKRLRNKFRLMRQAWKDYR [CS-piscidin]
[1]
  IC50: 37.4 ± 5.09 µM
[2]
  IC50: 9.44 ± 0.666 µM
[3]
  IC50: 19.8 ± 0.836 µM
[4]
  IC50: 27.4 ± 1.16 µM
[5]
  ascites / cytotoxicity to normal cells in vivo: still produced ascites
[6]
  IC50: 35.2 ± 3.14 µM
[7]
  IC50: 14.3 ± 3.03 µM
